{"source": "patent US9696323B2", "about": "“Biomarkers for chagas disease related cardiomyopathy” (THE BOARD OF REGENTS OF THE UNIVERSITY OF TEXAS SYSTEM, priority 2013, dated 2017)", "test_system": "T. cruzi", "test": "2D-GE plasma proteome profile (differential protein expression) of T. cruzi-infected rats treated with PBN and/or BZ", "type": "in vivo, rat", "conditions": "for expression of inflammation-associated plasma proteins: APOH", "from_the_text": "Certain embodiments include biomarkers identified in a previous study. Parasite persistence and oxidative damage in the heart are known to be of pathological significance during Chagas disease (Zacks et al., (2005) An Acad Bras Cienc, 77, 695-715; Gupta et al., (2009) Interdiscip Perspect Infect Dis, 2009, 190354). […] In the previous study the inventors identified 92 proteins that were differentially expressed or oxidized in chagasic plasma. Functional analysis allocated a majority of these proteins to inflammation/immunity and lipid metabolism categories, and to molecular pathways associated with cardiovascular dysfunction, e.g., myocardial infarction, hypertrophy, and fibrosis, and pulmonary embolism and hypertension. Some proteins in chagasic rats treated with PBN and/or BZ were allocated to curative pathways (immune regulation and cardiac remodeling). The 2D-GE results were validated by Western blotting. […] Increased plasma levels of GSN, MYL2, and VIM were directly correlated with the severity of cardiac disease in human chagasic patients. […] These findings have utility in diagnosing disease severity and designing suitable therapy for management of human chagasic patients.\nIngenuity Pathway Analysis (IPA) is a highly curated and comprehensive software used for the integration of proteins into networks and pathways with biological meaning (Thomas and Bonchev, (2010). Hum Genomics, 4, 353-360). Network analysis of the plasma proteome profile of chagasic rats identified four major sub-networks linked to host response to T. cruzi infection and disease development (Table V). The maximal numbers of the differentially expressed plasma proteins (19 proteins) in chagasic rats were associated with antigen presentation and inflammatory response category (Table V) and indicators of persistent inflammation, known to be of pathological significance in Chagas disease (Dhiman et al., (2009) Clinical and Vaccine Immunology, 16, 660-666; Tanowitz et al., (2009) Prog Cardiovasc Dis, 51, 524-539; Junqueira et al., (2010) Expert Rev Mol Med, 12, e29). Following functional analysis of the inflammation-associated proteins, 12 proteins (APOA1, APOE, C3, CFB, CFH, FGB, GSN, KRT10, PLG, SCG2, SERPINA1, and SERPINC1) were identified as being involved in immune cell trafficking and cell movement of leukocytes, granulocytes, phagocytes, neutrophils, and dendritic and antigen presenting cells. Some of the differentially expressed proteins in inflammation category were associated with activation (APOE, C3, CFH, GC and PLG), chemotaxis (C3, SCG2, SERPINA1, SERPINC1), and infiltration of leukocytes (APOA1, APOE, C3, PLG, KRT10) and neutrophils (C3, CFB, CFH, PLG). Up regulation of APOE, APOA1, APOH, GC and PLG in chagasic plasma was indicative of activation, binding and accumulation of macrophages in the disease state. Of the 19 differentially expressed inflammation-associated proteins, 11 proteins (APOE, C3, CFB, CFH, GSN, KRT10, SCG2, SERPINA1, SERPINC1, GC, and PLG) were carbonylated in chagasic plasma. […] Other proteins (APOE, C3, KRT3, and SCG2) were exposed to oxidation due to T. cruzi-induced, acute oxidative stress, but were normalized in expression and oxidation during the chronic phase.\nSeventeen of the differentially expressed proteins in chagasic plasma, i.e., AFM, C4BPA, CACNA1D, DLGAP2, GC, KNG1, MUG1, MYLPF, MY05A, MY05B, PRPH, PZP, RAI14, and SCG2, were allotted to the lipid metabolism/molecular transport/small molecule biochemistry category (Table V) and functionally linked by IPA network analysis to lipid, fatty acid, and carbohydrate metabolism. A majority of the proteins in this category, i.e., ALB, APOA1, APOA4, APOE, APOH, C3, GC, GNAQ, MY05A, PLG, SCD2, SERPINA1, SERPINC1 and VIM, were linked to the synthesis, metabolism, transport, and modification of lipids and fatty acids, and to uptake and release or efflux of lipids, eicosanoids, and cholesterol. […]", "key": {"[1]": {"conditions": "plasma, RAP group (acute infection)"}}, "data": [{"smiles": "CC(C)(C)/[N+]([O-])=C/c1ccccc1", "note": "[PBN]", "values": [{"measurement": "expression of inflammation-associated plasma proteins", "setting": "acutely infected rats, APOE, CFH, PLG and SCG2", "value": "normalized or regulated the expression"}, {"measurement": "expression of inflammation-associated plasma proteins", "setting": "chronically infected rats, GC, GSN and PLG", "value": "normalized or regulated the expression"}, {"measurement": "expression level of CFB, GSN, C3, and SERPINC1", "setting": "infected rats", "value": "partly regulated"}, {"measurement": "Spot# 12, 180 Average Normalized Density × 100,000", "setting": "[1]", "value": 21.47}, {"measurement": "Spot# 34 Average Normalized Density × 100,000", "setting": "[1]", "value": 0.37}, {"measurement": "Spot# 37, 593 Average Normalized Density × 100,000", "setting": "[1]", "value": 14.38}, {"measurement": "Spot# 49, 673 Average Normalized Density × 100,000", "setting": "[1]", "value": 19.12}, {"measurement": "Spot# 52, 54, 302 Average Normalized Density × 100,000", "setting": "[1]", "value": 9.80}, {"measurement": "Spot# 53, 225 Average Normalized Density × 100,000", "setting": "[1]", "value": 8.76}, {"measurement": "Spot# 72 Average Normalized Density × 100,000", "setting": "[1]", "value": 18.10}, {"measurement": "Spot# 73, 705, 787 Average Normalized Density × 100,000", "setting": "[1]", "value": 46.94}, {"measurement": "Spot# 77 Average Normalized Density × 100,000", "setting": "[1]", "value": 16.3}, {"measurement": "Spot# 88 Average Normalized Density × 100,000", "setting": "[1]", "value": 74.61}, {"measurement": "Spot# 94 Average Normalized Density × 100,000", "setting": "[1]", "value": 1.84}, {"measurement": "Spot# 115, 123 Average Normalized Density × 100,000", "setting": "[1]", "value": 22.27}, {"measurement": "Spot# 149 Average Normalized Density × 100,000", "setting": "[1]", "value": 0.78}, {"measurement": "Spot# 153 Average Normalized Density × 100,000", "setting": "[1]", "value": 27.07}, {"measurement": "Spot# 177 Average Normalized Density × 100,000", "setting": "[1]", "value": 3.71}, {"measurement": "Spot# 181 Average Normalized Density × 100,000", "setting": "[1]", "value": 3.99}, {"measurement": "Spot# 184, 257, 328 Average Normalized Density × 100,000", "setting": "[1]", "value": 4.54}, {"measurement": "Spot# 207, 555 Average Normalized Density × 100,000", "setting": "[1]", "value": 13.23}, {"measurement": "Spot# 215 Average Normalized Density × 100,000", "setting": "[1]", "value": 1.73}, {"measurement": "Spot# 266 Average Normalized Density × 100,000", "setting": "[1]", "value": 0.75}, {"measurement": "Spot# 299 Average Normalized Density × 100,000", "setting": "[1]", "value": 1.92}, {"measurement": "Spot# 315 Average Normalized Density × 100,000", "setting": "[1]", "value": 6.24}, {"measurement": "Spot# 334 Average Normalized Density × 100,000", "setting": "[1]", "value": 0.61}, {"measurement": "Spot# 341 Average Normalized Density × 100,000", "setting": "[1]", "value": 0.59}, {"measurement": "Spot# 355, 359 Average Normalized Density × 100,000", "setting": "[1]", "value": 2.99}, {"measurement": "Spot# 382, 385, 378, 572, 578, 595 Average Normalized Density × 100,000", "setting": "[1]", "value": 33.76}, {"measurement": "Spot# 389 Average Normalized Density × 100,000", "setting": "[1]", "value": 37.55}, {"measurement": "Spot# 430 Average Normalized Density × 100,000", "setting": "[1]", "value": 22.40}, {"measurement": "Spot# 434, 678 Average Normalized Density × 100,000", "setting": "[1]", "value": 55.14}, {"measurement": "Spot# 439 Average Normalized Density × 100,000", "setting": "[1]", "value": 4.04}, {"measurement": "Spot# 452 Average Normalized Density × 100,000", "setting": "[1]", "value": 18.92}, {"measurement": "Spot# 464 Average Normalized Density × 100,000", "setting": "[1]", "value": 3.89}, {"measurement": "Spot# 479 Average Normalized Density × 100,000", "setting": "[1]", "value": 23.96}, {"measurement": "Spot# 493 Average Normalized Density × 100,000", "setting": "[1]", "value": 9.82}, {"measurement": "Spot# 515 Average Normalized Density × 100,000", "setting": "[1]", "value": 6.87}, {"measurement": "Spot# 524 Average Normalized Density × 100,000", "setting": "[1]", "value": 53.74}, {"measurement": "Spot# 551, 587, 908 Average Normalized Density × 100,000", "setting": "[1]", "value": 88.04}, {"measurement": "Spot# 559 Average Normalized Density × 100,000", "setting": "[1]", "value": 24.39}, {"measurement": "Spot# 571 Average Normalized Density × 100,000", "setting": "[1]", "value": 7.84}, {"measurement": "Spot# 576, 620 Average Normalized Density × 100,000", "setting": "[1]", "value": 18.08}, {"measurement": "Spot# 586, 614 Average Normalized Density × 100,000", "setting": "[1]", "value": 50.44}, {"measurement": "Spot# 592 Average Normalized Density × 100,000", "setting": "[1]", "value": 15.61}, {"measurement": "Spot# 604 Average Normalized Density × 100,000", "setting": "[1]", "value": 22.81}, {"measurement": "Spot# 606 Average Normalized Density × 100,000", "setting": "[1]", "value": 9.60}, {"measurement": "Spot# 627 Average Normalized Density × 100,000", "setting": "[1]", "value": 30.23}, {"measurement": "Spot# 638 Average Normalized Density × 100,000", "setting": "[1]", "value": 4.42}, {"measurement": "Spot# 649 Average Normalized Density × 100,000", "setting": "[1]", "value": 40.69}, {"measurement": "Spot# 651 Average Normalized Density × 100,000", "setting": "[1]", "value": 94.03}, {"measurement": "Spot# 655 Average Normalized Density × 100,000", "setting": "[1]", "value": 240.6}, {"measurement": "Spot# 672 Average Normalized Density × 100,000", "setting": "[1]", "value": 7.34}, {"measurement": "Spot# 676 Average Normalized Density × 100,000", "setting": "[1]", "value": 14.69}, {"measurement": "Spot# 691 Average Normalized Density × 100,000", "setting": "[1]", "value": 49.99}, {"measurement": "Spot# 715 Average Normalized Density × 100,000", "setting": "[1]", "value": 10.83}, {"measurement": "Spot# 724 Average Normalized Density × 100,000", "setting": "[1]", "value": 1.72}, {"measurement": "Spot# 728 Average Normalized Density × 100,000", "setting": "[1]", "value": 0.76}, {"measurement": "Spot# 733 Average Normalized Density × 100,000", "setting": "[1]", "value": 2.24}, {"measurement": "Spot# 740 Average Normalized Density × 100,000", "setting": "[1]", "value": 7.81}, {"measurement": "Spot# 745 Average Normalized Density × 100,000", "setting": "[1]", "value": 4.51}, {"measurement": "Spot# 749 Average Normalized Density × 100,000", "setting": "[1]", "value": 4.71}, {"measurement": "Spot# 766 Average Normalized Density × 100,000", "setting": "[1]", "value": 3.20}, {"measurement": "Spot# 779, 909 Average Normalized Density × 100,000", "setting": "[1]", "value": 5.45}, {"measurement": "Spot# 796 Average Normalized Density × 100,000", "setting": "[1]", "value": 9.97}, {"measurement": "Spot# 814 Average Normalized Density × 100,000", "setting": "[1]", "value": 0.60}, {"measurement": "Spot# 817 Average Normalized Density × 100,000", "setting": "[1]", "value": 12.14}, {"measurement": "Spot# 820, 1081 Average Normalized Density × 100,000", "setting": "[1]", "value": 4.59}, {"measurement": "Spot# 827 Average Normalized Density × 100,000", "setting": "[1]", "value": 17.91}, {"measurement": "Spot# 832 Average Normalized Density × 100,000", "setting": "[1]", "value": 6.23}, {"measurement": "Spot# 860 Average Normalized Density × 100,000", "setting": "[1]", "value": 3.06}, {"measurement": "Spot# 867 Average Normalized Density × 100,000", "setting": "[1]", "value": 2.56}, {"measurement": "Spot# 881 Average Normalized Density × 100,000", "setting": "[1]", "value": 13.92}, {"measurement": "Spot# 897 Average Normalized Density × 100,000", "setting": "[1]", "value": 4.82}, {"measurement": "Spot# 900 Average Normalized Density × 100,000", "setting": "[1]", "value": 25.94}, {"measurement": "Spot# 906 Average Normalized Density × 100,000", "setting": "[1]", "value": 49.40}, {"measurement": "Spot# 966 Average Normalized Density × 100,000", "setting": "[1]", "value": 53.33}]}]}
